This test deals with T1, SARM1 (50-724) (Homo sapiens, UniProt Q6SZW1).
T1 construct: Purified SARM1 (50-724) with a final concentration of 2 nM was pre-incubated with a test compound
T1 sequence (Q6SZW1 50-724): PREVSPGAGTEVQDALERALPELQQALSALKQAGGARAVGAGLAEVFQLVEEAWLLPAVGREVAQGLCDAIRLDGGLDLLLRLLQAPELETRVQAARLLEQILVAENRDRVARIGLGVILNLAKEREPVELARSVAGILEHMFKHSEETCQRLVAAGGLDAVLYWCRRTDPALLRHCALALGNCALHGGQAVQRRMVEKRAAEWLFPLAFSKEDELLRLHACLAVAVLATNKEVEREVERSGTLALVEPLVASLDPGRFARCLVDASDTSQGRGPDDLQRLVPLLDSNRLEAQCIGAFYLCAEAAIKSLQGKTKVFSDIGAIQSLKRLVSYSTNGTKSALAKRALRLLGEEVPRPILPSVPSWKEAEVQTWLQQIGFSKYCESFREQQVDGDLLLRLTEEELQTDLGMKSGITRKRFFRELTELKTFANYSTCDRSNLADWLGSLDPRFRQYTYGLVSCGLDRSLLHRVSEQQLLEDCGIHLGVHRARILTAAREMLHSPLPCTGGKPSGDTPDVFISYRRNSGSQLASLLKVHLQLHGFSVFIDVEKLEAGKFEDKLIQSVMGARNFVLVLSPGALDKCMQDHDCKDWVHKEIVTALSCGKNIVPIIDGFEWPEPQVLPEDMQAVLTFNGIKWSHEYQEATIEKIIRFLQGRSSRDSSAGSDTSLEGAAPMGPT
The test can be described thus: SARM1 (50-724) enzymatic assay (LC-MS/MS). The class given is biochemical. The note with it: Purified SARM1 (50-724) 2 nM, NMN as activator, NAD+ as substrate, 1 h at room temperature, read-out: IC50 (SARM1 inhibitory activity). On the procedure:
An enzymatic assay was performed in a 384-well plate using Dulbecco's phosphate-buffered saline (PBS) as the reaction buffer. Purified SARM1 (50-724) with a final concentration of 2 nM was pre-incubated with a test compound at […] final assay concentration for 15 min at room temperature. The reaction was initiated by adding a mixture of […] nicotinamide mononucleotide (NMN) as activator and […] NAD^+ as substrate. After 1 h of incubation at room temperature, the reaction was terminated with 10 times volume of 70% acetonitrile, and then centrifuged at 3800 rpm for 10 min. The samples were analyzed using LC-MS/MS after diluted to a proper concentration by 10 mM ammonium acetate (pH 9.75).
In Table 2, activity is provided as follows: A: IC50≤100 nM; B: 100 nM<IC50≤500 nM; C: 500 nM<IC50≤1000 nM; D: IC50>1000 nM.

Each structure is given as a SMILES string.

In the case of `FC(F)(F)Oc1cccnc1-n1cnnc1-c1nc2cc(C(F)(F)F)ccc2[nH]1` [Compound 177], the IC50 is not above 100 nM.
In the case of `FC(F)(F)c1ccc2[nH]c(-c3nncn3-c3nsc(Cl)c3Cl)nc2c1` [Example 106] it was not above 100 nM.
The value for `CC1(c2cc(F)c3[nH]c(-c4nncn4-c4cnccc4C(F)(F)F)nc3c2)COC1` [Compound 290, 7-fluoro-5-(3-methyloxetan-3-yl)-2-(4-(4-(trifluoromethyl)pyridin-3-yl)-4H-1,2,4-triazol-3-yl)-1H-benzo[d]imidazole] was not above 100 nM.
The value for `OCc1cccc(OC(F)(F)F)c1-n1cnnc1-c1nc2cc(C(F)(F)F)ccc2[nH]1` [Compound 261, (3-(trifluoromethoxy)-2-(3-(5-(trifluoromethyl)-1H-benzo[d]imidazol-2-yl)-4H-1,2,4-triazol-4-yl)phenyl)methanol] was not above 100 nM.
For `Cc1ccc2[nH]c(-c3c(-c4cccc(Cl)c4Cl)cnn3C)nc2c1` [Example 34], the IC50 is more than 1000 nM.
In the case of `N#CC1(c2ccc3[nH]c(-c4nncn4-c4ccc(F)c(F)c4Cl)nc3c2)CC1` [Example 135] it was not above 100 nM; in that of `Cc1cc(-c2ccc3[nH]c(-c4nncn4-c4cccc(Cl)c4Cl)nc3c2)[nH]n1` [Example 51, 2-(4-(2,3-dichlorophenyl)-4H-1,2,4-triazol-3-yl)-5-(3-methyl-1H-pyrazol-5-yl)-1H-benzo[d]imidazole], not above 100 nM; in that of `Cc1ccc2[nH]c(-c3cccn3C3CCCC3)nc2c1` [Compound 6, 2-(1-cyclopentylpyrrol-2-yl)-5-methyl-1H-benzimidazole], 100 to 500 nM.
For the compound `Fc1cc([C@@H]2[C@@H]3COC[C@@H]32)cc2nc(-c3nncn3-c3cnccc3C(F)(F)F)[nH]c12` (single isomer, unassigned) [Compound 349, 7-fluoro-5-(3-oxabicyclo[3.1.0]hexan-6-yl)-2-[4-[4-(trifluoromethyl)-3-pyridyl]-1,2,4-triazol-3-yl]-1H-benzimidazole], the IC50 was not above 100 nM.
In the case of `CC1(c2ccc3[nH]c(-c4nncn4-c4ccncc4OC(F)(F)F)nc3c2)CC1` [Compound 224, 5-(1-methylcyclopropyl)-2-(4-(3-(trifluoromethoxy)pyridin-4-yl)-4H-1,2,4-triazol-3-yl)-1H-benzo[d]imidazole] it was not above 100 nM; in that of `OC1(c2ccc3[nH]c(-c4nncn4-c4cccc(Cl)c4Cl)nc3c2)CC1` [Example 133], not above 100 nM; in that of `CC(C)(O)Cc1nnc(-c2nc3cc(C(F)(F)F)ccc3[nH]2)n1-c1cccc(F)c1Cl` [Compound 388, 1-(4-(2-chloro-3-fluorophenyl)-5-(5-(trifluoromethyl)-1H-benzo[d]imidazol-2-yl)-4H-1,2,4-triazol-3-yl)-2-methylpropan-2-ol], not above 100 nM.
Regarding `CC(c1cc(F)c2[nH]c(-c3nncn3-c3cnccc3C(F)(F)F)nc2c1)c1nccs1` (single isomer, unassigned) [Compound 433, 2-(1-(7-fluoro-2-(4-(4-(trifluoromethyl)pyridin-3-yl)-4H-1,2,4-triazol-3-yl)-1H-benzo[d]imidazol-5-yl)ethyl)thiazole], the IC50 is not above 100 nM.
The value for `FC(F)(F)Oc1ccccc1-n1cnnc1-c1nc2cc(C(F)(F)F)ccc2[nH]1` [Compound 160] was not above 100 nM; that for `CS(=O)(=O)CCOc1ccc(OC(F)(F)F)c(-n2cnnc2-c2nc3cc(C(F)(F)F)ccc3[nH]2)n1` [Compound 267] was not above 100 nM; that for `CCc1ccncc1-n1cnnc1-c1nc2cc(C(F)(F)F)ccc2[nH]1` [Compound 231, 2-(4-(4-ethylpyridin-3-yl)-4H-1,2,4-triazol-3-yl)-5-(trifluoromethyl)-1H-benzo[d]imidazole] was not above 100 nM.
In the case of `CS(=O)(=O)Cc1nnc(-c2nc3cc(C(F)(F)F)cc(F)c3[nH]2)n1-c1cccc(Cl)c1Cl` (single isomer, unassigned) [Compound 186] it was 100 to 500 nM; in that of `CNc1ccc(Cl)c(-n2cnnc2-c2nc3cc(C(F)(F)F)ccc3[nH]2)n1` [Compound 175, 5-Chloro-N-methyl-6-(3-(5-(trifluoromethyl)-1H-benzo[d]imidazol-2-yl)-4H-1,2,4-triazol-4-yl)pyridin-2-amine], not above 100 nM.
As for `FC(F)(F)c1ccc2[nH]c(-c3ccnn3-c3cnccc3C(F)(F)F)nc2c1` [Compound 449, 5-(trifluoromethyl)-2-(1-(4-(trifluoromethyl)pyridin-3-yl)-1H-pyrazol-5-yl)-1H-benzo[d]imidazole], the concentration for half-maximal inhibition (IC50) is not above 100 nM.
In the case of `FC(F)(F)c1ccc2[nH]c(-c3nncn3-c3cn4nccc4cc3C(F)(F)F)nc2c1` [Compound 311, 5-(trifluoromethyl)-2-(4-(5-(trifluoromethyl)pyrazolo[1,5-a]pyridin-6-yl)-4H-1,2,4-triazol-3-yl)-1H-benzo[d]imidazole] it was 100 to 500 nM; in that of `COC(C)c1ccc2[nH]c(-c3nncn3-c3ccc(F)c(F)c3Cl)nc2c1` (stereo not drawn) [Compound 155, 2-(4-(2-chloro-3,4-difluorophenyl)-4H-1,2,4-triazol-3-yl)-5-(1-methoxyethyl)-1H-benzo[d]imidazole], not above 100 nM; in that of `OCCOCc1nnc(-c2nc3cc(C(F)(F)F)ccc3[nH]2)n1-c1cccc(Cl)c1Cl` [Example 126], not above 100 nM.
The value for `N#Cc1c(Cl)ccc2[nH]c(-c3nncn3-c3cccc(Cl)c3Cl)nc12` [Example 50, 5-chloro-2-(4-(2,3-dichlorophenyl)-4H-1,2,4-triazol-3-yl)-1H-benzo[d]imidazole-4-carbonitrile] was 100 to 500 nM; that for `[2H]c1cncc(-n2c([2H])nnc2-c2nc3c(F)c(C4([2H])CC4)ccc3[nH]2)c1C(F)(F)F` [Compound 372, 5-(cyclopropyl-1-d)-4-fluoro-2-(4-(4-(trifluoromethyl)pyridin-3-yl-5-d)-4H-1,2,4-triazol-3-yl-5-d)-1H-benzo[d]imidazole] was not above 100 nM; that for `FC(F)(F)c1ccc2[nH]c(-c3nncn3-c3cnccc3C(F)(F)F)cc2c1` [Compound 258, 5-(trifluoromethyl)-2-(4-(4-(trifluoromethyl)pyridin-3-yl)-4H-1,2,4-triazol-3-yl)-1H-indole] was not above 100 nM.
For `C[S+]([O-])c1ccc2[nH]c(-c3nncn3-c3cccc(Cl)c3Cl)nc2c1` (stereo not drawn) [Compound 153, 2-(4-(2,3-dichlorophenyl)-4H-1,2,4-triazol-3-yl)-5-(methylsulfinyl)-1H-benzo[d]imidazole], the IC50 fell in the range of 100 to 500 nM.
In the case of `OCCOc1ccc(OC(F)(F)F)c(-n2cnnc2-c2nc3cc(C(F)(F)F)ccc3[nH]2)c1` [Compound 230, 2-(4-(trifluoromethoxy)-3-(3-(5-(trifluoromethyl)-1H-benzo[d]imidazol-2-yl)-4H-1,2,4-triazol-4-yl)phenoxy)ethan-1-ol] it was not above 100 nM; in that of `Cc1cnn(-c2cc(F)c3[nH]c(-c4nncn4-c4cnccc4C(F)(F)F)nc3c2)c1` [Compound 400, 7-fluoro-5-(4-methyl-1H-pyrazol-1-yl)-2-(4-(4-(trifluoromethyl)pyridin-3-yl)-4H-1,2,4-triazol-3-yl)-1H-benzo[d]imidazole], not above 100 nM; in that of `FC(F)(F)c1ccc2[nH]c(-c3nncn3-c3cc4nccn4cc3C(F)(F)F)nc2c1` [Compound 236, 5-(trifluoromethyl)-2-(4-(6-(trifluoromethyl)imidazo[1,2-a]pyridin-7-yl)-4H-1,2,4-triazol-3-yl)-1H-benzo[d]imidazole], not above 100 nM.
The value for `N#CC1CC1c1ccc2[nH]c(-c3nncn3-c3cnccc3C(F)(F)F)nc2c1F` (stereo not drawn) [Compound 320, 2-(4-fluoro-2-(4-(4-(trifluoromethyl)pyridin-3-yl)-4H-1,2,4-triazol-3-yl)-1H-benzo[d]imidazol-5-yl)cyclopropane-1-carbonitrile] was not above 100 nM; that for `Cc1ccc2[nH]c(-c3ccncc3-c3cccc(Cl)c3Cl)nc2c1` [Example 22] was 500 to 1000 nM.
The value for `Cc1ccc2[nH]c(-n3c(-c4cccc(Cl)c4Cl)noc3=O)nc2c1` [Compound 29, 3-(2,3-dichlorophenyl)-4-(5-methyl-1H-benzo[d]imidazol-2-yl)-1,2,4-oxadiazol-5 (4H)-one] was more than 1000 nM; that for `FC(F)(F)c1ncc2[nH]c(-c3nncn3-c3cnccc3C(F)(F)F)cc2n1` [Compound 378, 2-(trifluoromethyl)-6-(4-(4-(trifluoromethyl)pyridin-3-yl)-4H-1,2,4-triazol-3-yl)-5H-pyrrolo[3,2-d]pyrimidine] was more than 1000 nM.

As usually defined, the IC50 is the concentration that gives 50% inhibition.

These data come from US20260258064A1 (SIRONAX LTD., priority 2023, published 2026).
